Data reported in the supplement of paper PMC13380429.

Legend:
Details in all cases: 72 h
U2OS [1] = assay: cell viability relative to DMSO; higher = less toxic
Vero E6 [2] = assay: as above
Calu-3 [3] = assay: as above
Caco-2 [4] = assay: as above
HepG2 [5] = assay: as above
U2OS [6] = assay: drug sensitivity score (DSS) for viability; higher = more toxic; extreme values may be limits of the assay
Vero E6 [7] = assay: as above
Calu-3 [8] = assay: as above
Caco-2 [9] = assay: as above
HepG2 [10] = assay: as above
U2OS [11] = assay: relative viability EC50 (midpoint between 100% and the lowest measured viability); higher = less toxic
Vero E6 [12] = assay: as above
Calu-3 [13] = assay: as above
Caco-2 [14] = assay: as above
HepG2 [15] = assay: as above

Compound	cell viability (U2OS [1]; 1 nM) [%]	cell viability (U2OS [1]; 10 nM) [%]	cell viability (U2OS [1]; 100 nM) [%]	cell viability (U2OS [1]; 1000 nM) [%]	cell viability (U2OS [1]; 10000 nM) [%]	cell viability (Vero E6 [2]; 1 nM) [%]	cell viability (Vero E6 [2]; 10 nM) [%]	cell viability (Vero E6 [2]; 100 nM) [%]	cell viability (Vero E6 [2]; 1000 nM) [%]	cell viability (Vero E6 [2]; 10000 nM) [%]	cell viability (Calu-3 [3]; 1 nM) [%]	cell viability (Calu-3 [3]; 10 nM) [%]	cell viability (Calu-3 [3]; 100 nM) [%]	cell viability (Calu-3 [3]; 1000 nM) [%]	cell viability (Calu-3 [3]; 10000 nM) [%]	cell viability (Caco-2 [4]; 1 nM) [%]	cell viability (Caco-2 [4]; 10 nM) [%]	cell viability (Caco-2 [4]; 100 nM) [%]	cell viability (Caco-2 [4]; 1000 nM) [%]	cell viability (Caco-2 [4]; 10000 nM) [%]	cell viability (HepG2 [5]; 1 nM) [%]	cell viability (HepG2 [5]; 10 nM) [%]	cell viability (HepG2 [5]; 100 nM) [%]	cell viability (HepG2 [5]; 1000 nM) [%]	cell viability (HepG2 [5]; 10000 nM) [%]	drug sensitivity score (U2OS [6])	drug sensitivity score (Vero E6 [7])	drug sensitivity score (Calu-3 [8])	drug sensitivity score (Caco-2 [9])	drug sensitivity score (HepG2 [10])	relative viability EC50 (U2OS [11]) [µM]	relative viability EC50 (Vero E6 [12]) [µM]	relative viability EC50 (Calu-3 [13]) [µM]	relative viability EC50 (Caco-2 [14]) [µM]	relative viability EC50 (HepG2 [15]) [µM]
CC[C@H](C)[C@H]1O[C@]2(CC[C@@H]1C)C[C@@H]1C[C@@H](C/C=C(\C)[C@@H](O[C@H]3C[C@H](OC)[C@@H](O[C@H]4C[C@H](OC)[C@@H](O)[C@H](C)O4)[C@H](C)O3)[C@@H](C)/C=C/C=C3\CO[C@@H]4[C@H](O)C(C)=C[C@@H](C(=O)O1)[C@]34O)O2 [ivermectin]	104	95.1	99.4	96.1	93.9	107	103	106	103	87.8	101	107	88.1	97.1	93.6	94.7	90.3	94.2	95.8	108	96.2	98.5	108	107	85	0	0	0	0	0.1	> 10	> 10	> 10	> 10	> 10
CC(CCc1ccccc1)NCC(O)c1ccc(O)c(C(N)=O)c1 (stereo not given) [labetalol]	97.6	105	98.6	101	99.7	97.3	97.2	96.3	92	103	98.7	107	94.8	103	101	88.3	85.3	89.4	91.2	110	105	100	102	90.5	99.6	0	0	0	0	0	> 10	> 10	> 10	> 10	> 10
CC(C)=CCC[C@](C)(O)[C@@H]1CC=C(C)CC1 [levomenol]	96.2	100	96.4	104	103	94.6	96.5	99	98.8	108	97.9	98.2	97.2	94.3	100	101	103	82.6	110	95.1	99.8	100	116	98.1	106	0	0	0	0	0	> 10	> 10	> 10	> 10	> 10
N#Cc1cc(NC(=O)C(=O)O)c(Cl)c(NC(=O)C(=O)O)c1 [lodoxamide]	104	102	97.2	102	98.1	101	99.9	98.6	97.8	93.8	109	100	92.1	96.4	99.4	106	119	99.8	118	128	102	107	92.7	93.3	93.6	0	0	0	0	0	> 10	> 10	> 10	> 10	> 10
CC1=CC(=O)c2ccccc2C1=O [menadione]	95.4	101	96.4	99.7	93.1	104	104	99.9	102	95.1	95.8	104	112	97.9	106	100	103	100	104	94.2	102	100	116	106	99	0	0	0	0	0	> 10	> 10	> 10	> 10	> 10
CCC(=O)O[C@]1(C(=O)COC(C)=O)CC[C@H]2[C@@H]3C[C@H](C)C4=CC(=O)C=C[C@]4(C)[C@H]3[C@@H](O)C[C@@]21C [methylprednisolone-aceponate]	101	94.3	98.5	96.9	98.1	88	100	92.6	98.3	104	101	91.6	91.1	95.1	96.5	89.6	95.1	97.4	96.5	105	92.1	101	91.1	101	99.3	0	0	0	0	0	> 10	> 10	> 10	> 10	> 10
COc1ccc2cc1Oc1cc3c(cc1OC)CC[N+](C)(C)[C@H]3Cc1ccc(cc1)Oc1c(OC)c(OC)cc3c1[C@@H](C2)[N+](C)(C)CC3 [metocurine]	97.6	99.3	106	102	99.4	91.5	96.8	91.6	102	105	102	88.4	105	96.5	93.2	95.7	92.2	94.8	108	105	93.3	115	86.2	108	111	0	0	0	0	0	> 10	> 10	> 10	> 10	> 10
